In assay [1] the test system is hypoxic-ischemic injury to one cerebral hemisphere. Description: Hypoxic-ischemic injury in adult rats, IGF-1 vs MK801 (Experiment 1). The assay is classed as in vivo, Wistar rats. The following applies: 50 μg IGF-1 intraventricular and/or 1 mg MK801, 2 hours after hypoxia; histology at 120 hours; controls 65%.
Method: Adult Wistar rats (68 280-320 g) were prepared under 3% halothane/O2 anaesthesia. The right side carotid artery was ligated. A guide cannula was placed on the dura 8.2 mm anterior from bregma and 1.4 mm from midline on the right. The rats were allowed to recover from anaesthesia for 1 hour and were then placed in an incubator with humidity 85±5% and temperature 34±0.5° C. for 1 hour before hypoxia. Oxygen concentration was reduced and maintained at 6±0.2 O2 % hypoxia for 10 minutes. […] The intraventricular injections of 50 μg IGF-1 or vehicle alone were made into the right lateral ventricle at 1 μl/minute under 1.5%-2% halothane anaesthetic. Rats in each treatment group were infused simultaneously. The rats had free access to food during experiment and were euthanized at 120 hours after hypoxia with overdose of sodium pentobarbitol. Briefly, the brain was perfused in-situ with FAM (Formaldehyde, Acetic Acid, Methanol 1:1:8) then paraffin embedded. The sections were stained with Thionin and Acid Fuchsin. The presence of cortical infarction, defined as a region of tissue death or parenchymal pan-necrosis due to death of glia as well as neurons, was determined via light microscopy by an assessor who was blinded to the experimental groupings.
The test system of assay [2] is ischemic brain injury. Description: Ischemic brain injury in fetal sheep, postischemic seizures and neuronal loss (Experiment 2). The format is in vivo. From the text:
The objective of this study was to compare the effects of treatment either with IGF-1 (see FIG. 2) and previously published work with the NMDA antagonist […] after an ischemic brain injury on postischemic seizures and neuronal losses in fetal sheep. (Tan et al Ann Neurol 32:677-682 (1992)).
The methods were those of an earlier study (Tan et al Ann Neurol 32:677-682 (1992)). Briefly, late gestation fetal sheep were chronically instrumented to record EEG, nuchal activity and blood pressure, and were then returned to the uterus. Cortical EEG activity nuchal activity and blood pressure were recorded throughout he experiment and the fetal brain subjected to 30 minutes of ischemia. Two hours later they were treated by an infusion of either 1 μg IGF-1 (n=6) or vehicle (artificial CSF) (n=6) into the lateral ventricle. Five days later the brains were fixed and assessed for neuronal loss as described previously (Tan et al Ann Neurol 32:677-682 (1992)).
In all cases the vehicle is the left-hand column and the effects of 1 μg of IGF-1 is on the right.

From US6187906A, “Methods to improve neural outcome” (Aukland Uniservices Limited, priority 1998, dated 2001) come the findings set out here.

In the case of `C[C@]12N[C@H](Cc3ccccc31)c1ccccc12` [MK801, reference compound], in assay [1], the “incidence of cortical infarction” value amounted to 50%.
Consider insulin-like growth factor 1 [IGF-1], for which the “incidence of cortical infarction” value in assay [1] worked out at 33%. Further, the “neuronal rescue (neuronal loss scores)” value in assay [2] (1 μg IGF-1 into lateral ventricle 2 hours after 30 minutes of ischemia, assessed five days later) is “rescued neurons”. For the same compound, the postischemic seizure activity entry in assay [2] (1 μg IGF-1 into lateral ventricle 2 hours after ischemia) is on record as “did not suppress”.
